Assays:
[1] = molecular target: 5-hydroxytryptamine receptor 1A (Homo sapiens) (UniProt P08908); assay: 5-HT1A Eurofins-Cerep binding assay; parameters: ligand concentration 0.5 nM; settings: filed as agonist, Compound concentration 10.0 uM
[2] = molecular target: cAMP and cAMP-inhibited cGMP 3',5'-cyclic phosphodiesterase 10A (Homo sapiens, UniProt Q9Y233); assay: IC50 of hPDE10A2 in the PDE screen at 1.0 µM
[3] = species: Rattus norvegicus; assay: Ca2+ channel (L,verapamil site) (phenylalkylamine) Eurofins-Cerep binding assay; type: protein assay; parameters: ligand concentration 3 nM; settings: filed as antagonist, Compound concentration 10.0 uM
[4] = species: Rattus norvegicus; assay: SKCa channel Eurofins-Cerep binding assay; type: protein assay; parameters: ligand concentration 0.007 nM; settings: filed as antagonist, Compound concentration 10.0 uM
[5] = molecular target: Adenosine receptor A1 (Homo sapiens) (UniProt P30542); assay: A1 Eurofins-Cerep binding assay; parameters: ligand concentration 1 nM; settings: filed as antagonist, Compound concentration 10.0 uM
[6] = molecular target: Sodium-dependent serotonin transporter (Homo sapiens) (UniProt P31645); assay: 5-HT transporter Eurofins-Cerep binding assay; parameters: ligand concentration 2 nM; settings: filed as antagonist, Compound concentration 10.0 uM
[7] = molecular target: C-C chemokine receptor type 1 (Homo sapiens) (UniProt P32246); assay: CCR1 Eurofins-Cerep binding assay; parameters: ligand concentration 0.01 nM; settings: filed as agonist, Compound concentration 10.0 uM
[8] = molecular target: Sodium-dependent dopamine transporter (Homo sapiens) (UniProt Q01959); assay: dopamine transporter Eurofins-Cerep binding assay; settings: filed as antagonist, Compound concentration 10.0 uM
Sodium-dependent dopamine transporter (Homo sapiens), sequence (Q01959 whole entry): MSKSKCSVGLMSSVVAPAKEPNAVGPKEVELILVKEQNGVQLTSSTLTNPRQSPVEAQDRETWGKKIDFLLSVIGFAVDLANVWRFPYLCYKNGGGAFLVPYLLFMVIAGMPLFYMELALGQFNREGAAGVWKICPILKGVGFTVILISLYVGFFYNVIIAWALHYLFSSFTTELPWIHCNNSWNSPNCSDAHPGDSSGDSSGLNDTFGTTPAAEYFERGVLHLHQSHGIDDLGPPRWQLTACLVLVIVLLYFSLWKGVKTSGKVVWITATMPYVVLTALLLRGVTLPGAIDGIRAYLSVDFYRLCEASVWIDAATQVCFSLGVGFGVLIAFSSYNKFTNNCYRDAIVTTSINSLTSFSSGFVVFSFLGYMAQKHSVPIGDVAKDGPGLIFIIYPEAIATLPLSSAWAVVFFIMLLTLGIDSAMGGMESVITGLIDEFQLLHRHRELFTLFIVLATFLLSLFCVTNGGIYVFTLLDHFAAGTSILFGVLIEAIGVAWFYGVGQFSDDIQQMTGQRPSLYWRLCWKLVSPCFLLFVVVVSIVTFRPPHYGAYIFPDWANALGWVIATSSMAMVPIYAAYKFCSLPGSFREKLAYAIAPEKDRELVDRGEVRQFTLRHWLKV

[9] = molecular target: cGMP-specific 3',5'-cyclic phosphodiesterase (Homo sapiens, UniProt O76074); assay: IC50 of hPDE5A3 in the PDE screen at 1.0 µM
[10] = molecular target: 3',5'-cyclic-AMP phosphodiesterase 4D (Homo sapiens, UniProt Q08499); assay: IC50 of hPDE4D3 in the PDE screen at 1.0 µM
3',5'-cyclic-AMP phosphodiesterase 4D, sequence (Q08499 whole entry): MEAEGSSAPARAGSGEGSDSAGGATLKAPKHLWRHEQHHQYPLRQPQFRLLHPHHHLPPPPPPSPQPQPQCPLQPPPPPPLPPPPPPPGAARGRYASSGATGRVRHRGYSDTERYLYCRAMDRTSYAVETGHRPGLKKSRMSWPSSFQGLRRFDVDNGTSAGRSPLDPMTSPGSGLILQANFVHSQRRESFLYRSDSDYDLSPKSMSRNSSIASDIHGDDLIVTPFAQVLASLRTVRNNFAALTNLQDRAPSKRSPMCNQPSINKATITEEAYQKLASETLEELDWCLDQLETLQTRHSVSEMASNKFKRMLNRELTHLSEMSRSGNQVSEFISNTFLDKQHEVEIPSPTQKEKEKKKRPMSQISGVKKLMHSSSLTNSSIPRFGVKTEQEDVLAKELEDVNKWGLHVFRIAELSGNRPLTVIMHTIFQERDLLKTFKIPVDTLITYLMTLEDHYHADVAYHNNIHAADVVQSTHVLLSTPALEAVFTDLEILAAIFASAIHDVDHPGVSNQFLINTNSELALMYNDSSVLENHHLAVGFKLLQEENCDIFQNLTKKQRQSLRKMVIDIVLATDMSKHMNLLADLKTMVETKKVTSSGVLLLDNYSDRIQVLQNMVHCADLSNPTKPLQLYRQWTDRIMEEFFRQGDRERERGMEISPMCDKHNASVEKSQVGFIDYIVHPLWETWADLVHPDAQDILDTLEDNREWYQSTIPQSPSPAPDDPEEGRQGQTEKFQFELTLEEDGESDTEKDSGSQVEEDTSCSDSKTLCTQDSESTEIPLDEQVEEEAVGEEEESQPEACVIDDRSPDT

[11] = molecular target: 5-hydroxytryptamine receptor 1B (Homo sapiens) (UniProt P28222); assay: 5-HT1B Eurofins-Cerep binding assay; parameters: ligand concentration 1 nM; settings: filed as antagonist, Compound concentration 10.0 uM
5-hydroxytryptamine receptor 1B (Homo sapiens), sequence (P28222 whole entry): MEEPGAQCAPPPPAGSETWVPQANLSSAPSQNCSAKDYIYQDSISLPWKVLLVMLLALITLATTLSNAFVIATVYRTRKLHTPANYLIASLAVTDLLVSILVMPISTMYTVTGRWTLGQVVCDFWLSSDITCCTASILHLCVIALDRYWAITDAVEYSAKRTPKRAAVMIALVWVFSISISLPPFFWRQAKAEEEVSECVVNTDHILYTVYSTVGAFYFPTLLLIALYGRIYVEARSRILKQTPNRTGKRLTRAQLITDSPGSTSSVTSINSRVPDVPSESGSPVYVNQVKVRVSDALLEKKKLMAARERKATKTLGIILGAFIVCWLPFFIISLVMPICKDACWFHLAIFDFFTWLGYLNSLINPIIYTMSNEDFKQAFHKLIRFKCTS

[12] = molecular target: Delta-type opioid receptor (Homo sapiens) (UniProt P41143); assay: delta (DOP) Eurofins-Cerep binding assay; parameters: ligand concentration 0.5 nM; settings: filed as agonist, Compound concentration 10.0 uM
Delta-type opioid receptor (Homo sapiens), sequence (P41143 whole entry): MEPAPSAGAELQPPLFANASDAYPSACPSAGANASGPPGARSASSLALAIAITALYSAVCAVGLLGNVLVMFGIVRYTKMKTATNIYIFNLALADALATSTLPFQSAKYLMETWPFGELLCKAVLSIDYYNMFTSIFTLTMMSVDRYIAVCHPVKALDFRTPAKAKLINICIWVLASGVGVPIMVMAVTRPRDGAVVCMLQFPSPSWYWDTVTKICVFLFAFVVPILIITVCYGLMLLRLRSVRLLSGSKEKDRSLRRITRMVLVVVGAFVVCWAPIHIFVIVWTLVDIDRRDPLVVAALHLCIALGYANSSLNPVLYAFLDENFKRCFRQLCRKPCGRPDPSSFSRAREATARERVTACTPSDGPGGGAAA

[13] = molecular target: Histamine H1 receptor (Homo sapiens) (UniProt P35367); assay: H1 Eurofins-Cerep binding assay; parameters: ligand concentration 1 nM; settings: filed as antagonist, Compound concentration 10.0 uM
Histamine H1 receptor (Homo sapiens), sequence (P35367 whole entry): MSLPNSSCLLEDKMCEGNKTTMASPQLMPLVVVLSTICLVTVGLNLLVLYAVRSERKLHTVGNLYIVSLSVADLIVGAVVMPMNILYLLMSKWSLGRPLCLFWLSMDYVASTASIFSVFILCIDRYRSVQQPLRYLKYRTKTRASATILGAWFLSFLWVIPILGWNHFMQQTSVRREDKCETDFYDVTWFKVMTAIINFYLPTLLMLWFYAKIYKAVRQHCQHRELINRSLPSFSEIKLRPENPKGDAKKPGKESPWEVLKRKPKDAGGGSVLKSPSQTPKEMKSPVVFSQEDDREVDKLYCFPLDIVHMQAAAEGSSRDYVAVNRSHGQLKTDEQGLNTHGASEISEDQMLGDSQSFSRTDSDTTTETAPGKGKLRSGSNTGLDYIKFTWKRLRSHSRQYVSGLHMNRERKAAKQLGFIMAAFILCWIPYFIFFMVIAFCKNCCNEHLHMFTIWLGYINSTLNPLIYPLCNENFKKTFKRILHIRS

[14] = molecular target: Neuromedin-K receptor (Homo sapiens) (UniProt P29371); assay: NK3 Eurofins-Cerep binding assay; parameters: ligand concentration 0.4 nM; settings: filed as antagonist, Compound concentration 10.0 uM
[15] = molecular target: D(1A) dopamine receptor (Homo sapiens) (UniProt P21728); assay: D1 Eurofins-Cerep binding assay; parameters: ligand concentration 0.3 nM; settings: filed as antagonist, Compound concentration 10.0 uM
[16] = molecular target: Adenosine receptor A2a (Homo sapiens) (UniProt P29274); assay: A2A Eurofins-Cerep binding assay; parameters: ligand concentration 6 nM; settings: filed as agonist, Compound concentration 10.0 uM
Adenosine receptor A2a (Homo sapiens), sequence (P29274 whole entry): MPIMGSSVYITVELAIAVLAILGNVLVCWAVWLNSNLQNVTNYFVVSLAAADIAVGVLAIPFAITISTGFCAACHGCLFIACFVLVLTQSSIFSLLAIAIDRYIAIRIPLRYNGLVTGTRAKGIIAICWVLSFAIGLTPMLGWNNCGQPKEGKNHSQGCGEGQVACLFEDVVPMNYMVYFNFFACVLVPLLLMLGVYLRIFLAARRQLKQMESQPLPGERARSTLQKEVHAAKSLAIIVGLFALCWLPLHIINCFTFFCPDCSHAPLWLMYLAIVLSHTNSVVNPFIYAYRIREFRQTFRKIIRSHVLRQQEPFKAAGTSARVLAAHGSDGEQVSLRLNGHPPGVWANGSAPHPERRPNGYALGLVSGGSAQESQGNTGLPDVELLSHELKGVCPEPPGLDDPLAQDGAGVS

[17] = molecular target: Neuropeptide Y receptor type 1 (Homo sapiens) (UniProt P25929); assay: Y1 Eurofins-Cerep binding assay; parameters: ligand concentration 0.025 nM; settings: filed as agonist, Compound concentration 10.0 uM
[18] = species: Rattus norvegicus; assay: Cl-channel (GABA-gated) Eurofins-Cerep binding assay; parameters: ligand concentration 3 nM; settings: filed as antagonist, Compound concentration 10.0 uM
[19] = molecular target: Neuropeptide Y receptor type 2 (Homo sapiens) (UniProt P49146); assay: Y2 Eurofins-Cerep binding assay; parameters: ligand concentration 0.015 nM; settings: filed as agonist, Compound concentration 10.0 uM
[20] = species: Rattus norvegicus; assay: alpha 2 (non-selective) Eurofins-Cerep binding assay; type: protein assay; parameters: ligand concentration 1 nM; settings: filed as antagonist, Compound concentration 10.0 uM
[21] = molecular target: GABA-A receptor; anion channel (Rattus norvegicus) (UniProt O09028+P15431+P18506+P18508+P19969+P20236+P23574+P23576+P28471+P28473+P30191+P62813+P63079+P63138+Q91ZM7+Q9ES14); assay: GABA (non-selective) Eurofins-Cerep binding assay; type: protein-complex assay; parameters: ligand concentration 10 nM; settings: filed as agonist, Compound concentration 10.0 uM
[22] = molecular target: Histamine H2 receptor (Homo sapiens) (UniProt P25021); assay: H2 Eurofins-Cerep binding assay; parameters: ligand concentration 0.075 nM; settings: filed as antagonist, Compound concentration 10.0 uM
Histamine H2 receptor (Homo sapiens), sequence (P25021 whole entry): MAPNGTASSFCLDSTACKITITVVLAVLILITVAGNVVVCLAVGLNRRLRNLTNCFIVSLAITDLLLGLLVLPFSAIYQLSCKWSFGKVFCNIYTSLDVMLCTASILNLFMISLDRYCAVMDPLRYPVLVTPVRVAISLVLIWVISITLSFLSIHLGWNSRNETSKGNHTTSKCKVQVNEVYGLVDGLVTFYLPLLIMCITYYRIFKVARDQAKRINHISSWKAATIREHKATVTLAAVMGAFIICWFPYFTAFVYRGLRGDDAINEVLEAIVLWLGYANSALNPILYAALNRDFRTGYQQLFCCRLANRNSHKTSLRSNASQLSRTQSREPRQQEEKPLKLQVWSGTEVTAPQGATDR

[23] = molecular target: Nociceptin receptor (Homo sapiens) (UniProt P41146); assay: NOP (ORL1) Eurofins-Cerep binding assay; parameters: ligand concentration 0.06 nM; settings: filed as agonist, Compound concentration 10.0 uM
[24] = molecular target: C-X-C chemokine receptor type 2 (Homo sapiens) (UniProt P25025); assay: CXCR2 (IL-8B) Eurofins-Cerep binding assay; settings: filed as agonist, Compound concentration 10.0 uM
[25] = molecular target: Dual specificity calcium/calmodulin-dependent 3',5'-cyclic nucleotide phosphodiesterase 1B (Homo sapiens, UniProt Q01064); assay: IC50 of hPDE1B1 in the PDE screen at 1.0 µM
[26] = molecular target: cGMP-dependent 3',5'-cyclic phosphodiesterase (Rattus norvegicus) (UniProt Q01062); assay: Target occupancy in striatum ( p.o.dose, 1 h); type: organism-based
[27] = molecular target: Neurotensin receptor type 1 (Homo sapiens) (UniProt P30989); assay: NTS1 (NT1) Eurofins-Cerep binding assay; parameters: ligand concentration 0.05 nM; settings: filed as agonist, Compound concentration 10.0 uM
[28] = molecular target: Endothelin-1 receptor (Homo sapiens) (UniProt P25101); assay: ETA Eurofins-Cerep binding assay; parameters: ligand concentration 0.03 nM; settings: filed as agonist, Compound concentration 10.0 uM
Endothelin-1 receptor (Homo sapiens), sequence (P25101 whole entry): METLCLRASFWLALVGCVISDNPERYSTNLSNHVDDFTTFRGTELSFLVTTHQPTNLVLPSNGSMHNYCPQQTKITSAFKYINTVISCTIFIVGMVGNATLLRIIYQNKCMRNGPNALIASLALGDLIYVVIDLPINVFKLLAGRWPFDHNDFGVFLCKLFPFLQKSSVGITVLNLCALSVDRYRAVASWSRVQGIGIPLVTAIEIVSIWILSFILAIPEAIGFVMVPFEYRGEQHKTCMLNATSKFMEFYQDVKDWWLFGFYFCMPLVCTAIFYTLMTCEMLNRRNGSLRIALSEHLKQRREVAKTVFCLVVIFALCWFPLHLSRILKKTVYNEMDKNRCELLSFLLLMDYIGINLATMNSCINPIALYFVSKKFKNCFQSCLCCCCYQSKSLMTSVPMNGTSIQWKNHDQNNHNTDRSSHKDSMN

[29] = species: Rattus norvegicus; assay: KV channel Eurofins-Cerep binding assay; parameters: ligand concentration 0.01 nM; settings: filed as antagonist, Compound concentration 10.0 uM
[30] = molecular target: Phosphodiesterase 3 (Homo sapiens, UniProt Q14432+Q13370); assay: IC50 of hPDE3 in the PDE screen at 1.0 µM; type: protein assay

cAMP and cAMP-inhibited cGMP 3',5'-cyclic phosphodiesterase 10A, sequence (Q9Y233 whole entry): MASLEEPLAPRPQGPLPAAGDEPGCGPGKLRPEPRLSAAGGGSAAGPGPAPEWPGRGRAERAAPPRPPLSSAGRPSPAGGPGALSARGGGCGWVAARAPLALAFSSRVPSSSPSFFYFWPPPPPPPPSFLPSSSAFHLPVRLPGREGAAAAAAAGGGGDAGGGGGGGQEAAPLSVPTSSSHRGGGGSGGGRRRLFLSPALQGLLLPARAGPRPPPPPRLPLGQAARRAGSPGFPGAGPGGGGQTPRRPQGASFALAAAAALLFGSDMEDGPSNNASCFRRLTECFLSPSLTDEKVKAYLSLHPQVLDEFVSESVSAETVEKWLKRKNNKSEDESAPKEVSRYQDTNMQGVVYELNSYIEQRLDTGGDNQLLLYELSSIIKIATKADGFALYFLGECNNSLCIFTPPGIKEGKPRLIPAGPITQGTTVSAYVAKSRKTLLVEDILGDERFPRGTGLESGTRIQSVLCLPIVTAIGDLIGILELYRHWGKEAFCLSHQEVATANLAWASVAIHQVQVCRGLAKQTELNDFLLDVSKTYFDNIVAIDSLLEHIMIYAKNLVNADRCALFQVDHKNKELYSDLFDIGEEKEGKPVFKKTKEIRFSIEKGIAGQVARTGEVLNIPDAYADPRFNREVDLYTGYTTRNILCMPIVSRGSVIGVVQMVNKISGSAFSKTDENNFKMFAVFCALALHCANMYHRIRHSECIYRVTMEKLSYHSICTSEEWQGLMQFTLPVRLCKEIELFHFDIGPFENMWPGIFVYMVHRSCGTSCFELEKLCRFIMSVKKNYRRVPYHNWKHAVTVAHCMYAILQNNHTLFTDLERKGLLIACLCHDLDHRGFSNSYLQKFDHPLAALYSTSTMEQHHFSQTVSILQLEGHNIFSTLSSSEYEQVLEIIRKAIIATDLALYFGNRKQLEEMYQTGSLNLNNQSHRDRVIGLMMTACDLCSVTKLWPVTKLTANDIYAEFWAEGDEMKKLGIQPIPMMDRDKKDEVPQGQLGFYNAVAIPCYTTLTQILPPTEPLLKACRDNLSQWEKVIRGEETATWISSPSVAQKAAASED

With `Cc1cc(C(=O)N2CC[C@@H](C)[C@H](c3cc(C(F)F)nc4ncnn34)C2)cc(C)n1` the residual activity [1] was 99%, the IC50 [2] was 0.099 µM (not active) and the Ki [2] was 0.03 µM. It also gave a residual activity [3] of 96.6%, a residual activity [4] of 101% and a residual activity [5] of 107%. For the same compound, the residual activity [6] was 117%, the residual activity [7] was 89.6% and the residual activity [8] was 108%. For the same compound, the IC50 [9] was > 10 µM (not active), the IC50 [10] was > 10 µM (not active) and the residual activity [11] was 102%. The residual activity [12] was 90.2%, the residual activity [13] was 106% and the residual activity [14] was 99.8%. The residual activity [15] was 99.2%, the residual activity [16] was 55.1% and the residual activity [17] was 108%. For the same compound, the residual activity [18] was 102%, the residual activity [19] was 109% and the residual activity [20] was 104%. It also gave a residual activity [21] of 100%, a residual activity [22] of 103% and a residual activity [23] of 103%. The residual activity [24] was 109%, the IC50 [25] was > 10 µM (not active) and the ED50 [26] was 5.3 mg/kg. It also gave a residual activity [27] of 111%, a residual activity [28] of 102% and a residual activity [29] of 93.6%. For the same compound, the IC50 [30] was 6.643 µM and the Ki [30] was 3.32 µM.
